Data published in article PMC12337661, “PIEZO1 mechanical insensitivity in generalized lymphatic dysplasia with the potential for pharmacological rescue” (iScience, 2025).

How the values were obtained:
E824V mPIEZO1 = biological target: T1, E824V mPIEZO1 (Mus musculus, UniProt E2JF22, E824V); assay: Intracellular Ca2+ measurement (fura-2), T-REx-293 cells stably transfected; format: cell-based; conditions: versus WT
T1 construct: expressed in transfected cells
Description: (§1) T-REx-293 cell line was transfected with pcDNA4/TO-mPIEZO1 constructs using Lipofectamine 2000 (Invitrogen) as above and treated with 200 μg.mL^−1 zeocin (InvivoGen) to select for stably transfected cells. At least two strongly expressing clonal cell lines were established and tested for each variant. All cell lines were maintained in Dulbecco’s Modified Eagle’s medium (Invitrogen) supplemented with 10% heat-inactivated fetal calf serum (Sigma-Aldrich), penicillin (50 units.mL^−1) and streptomycin (0.5 mg.mL^−1) (Sigma-Aldrich) and grown at 37°C in a humidified 5% CO2 incubator.
(§2) For intracellular Ca^2+ assays, cells were plated at 80–90% confluence in 96-well plates 24 h prior to recordings (6–8 × 10^4 cells per well). […] Cells were washed with SBS and incubated at room temperature for 20 min prior to recordings. Equal volumes of 2x concentrated compounds were injected to test for acute channel activation. Pre-incubation with compounds occurred during the 20 min prior to recordings. To expose cell membranes to hypo-osmolality, an equal volume of hypotonic SBS (containing only 35 mM NaCl) was injected onto the cells. Measurements were made on a fluorescence plate reader (Flexstation III, Molecular Devices) at room temperature (21 ± 2°C). Fura-2 was excited at 340 nm and 380 nm and emitted light collected at 510 nm, with measurements shown as the change in fluorescence (F) ratio (ΔF340/380).
(§3) KC41 (Dooku1) was prepared as described.[28] All purchased chemicals and solvents were used without further purification unless otherwise stated. All compounds were at least 95% pure by 1H NMR. 1H Nuclear Magnetic Resonance spectra were recorded at 500 MHz using a Bruker DRX 500 instrument or at 400 MHz using a Bruker DPX 400. 1H spectra are referenced based on the residual proton in the solvent (e.g., the CHCl3, 0.01% in 99.99% CDCl3). Coupling constants (J) are reported to the nearest 0.1 Hz. 13C NMR spectra were recorded at 125 MHz on 500 MHz spectrometers or at 100 MHz on 400 MHz spectrometers. LC-MS was performed on a Bruker Daltronics running a gradient of increasing acetonitrile (5–95%) in H2O both containing 0.1% formic acid at 1 mL.min^−1, on a short path C18 reverse phase column, detecting compounds with both a diode array detector and a Bruker mass spectrum analyser. HRMS was performed on a Bruker Daltonics micrOTOF using positive electrospray ionisation (ES+). Automated column chromatograph was carried out using a Biotage Isolera Four, using either Sfär Silica D or KP-Silica cartridges. HPLC was performed on an Agilent 1290 Infinity Series equipped with a UV detector and Hyperprep C18 reverse phase column. Key to NMR abbreviations: s (singlet), br s (broad singlet) d (doublet), dd (doublet of doublets), ddd (doublet of doublets of doublets), t (triplet), dt (doublet of triples), q (quartet), m (multiplet), ap. t (apparent triplet). For experiments, Yoda1 and its analogues were prepared as 10 mM stock solutions in 100% dimethyl sulfoxide (DMSO) before serial dilution in DMSO and final dilution in aqueous solution. Cells were exposed to 0.1% DMSO for all concentrations of the compounds from 0 to 10 μM.

I2286T mPIEZO1 = biological target: T2, I2286T mPIEZO1 (Mus musculus, UniProt E2JF22, I2286T); assay: as above; format: cell-based
T2 construct: expressed in transfected cells
Description: as §1, §2, §3

T2 sequence (E2JF22 whole entry I2286T): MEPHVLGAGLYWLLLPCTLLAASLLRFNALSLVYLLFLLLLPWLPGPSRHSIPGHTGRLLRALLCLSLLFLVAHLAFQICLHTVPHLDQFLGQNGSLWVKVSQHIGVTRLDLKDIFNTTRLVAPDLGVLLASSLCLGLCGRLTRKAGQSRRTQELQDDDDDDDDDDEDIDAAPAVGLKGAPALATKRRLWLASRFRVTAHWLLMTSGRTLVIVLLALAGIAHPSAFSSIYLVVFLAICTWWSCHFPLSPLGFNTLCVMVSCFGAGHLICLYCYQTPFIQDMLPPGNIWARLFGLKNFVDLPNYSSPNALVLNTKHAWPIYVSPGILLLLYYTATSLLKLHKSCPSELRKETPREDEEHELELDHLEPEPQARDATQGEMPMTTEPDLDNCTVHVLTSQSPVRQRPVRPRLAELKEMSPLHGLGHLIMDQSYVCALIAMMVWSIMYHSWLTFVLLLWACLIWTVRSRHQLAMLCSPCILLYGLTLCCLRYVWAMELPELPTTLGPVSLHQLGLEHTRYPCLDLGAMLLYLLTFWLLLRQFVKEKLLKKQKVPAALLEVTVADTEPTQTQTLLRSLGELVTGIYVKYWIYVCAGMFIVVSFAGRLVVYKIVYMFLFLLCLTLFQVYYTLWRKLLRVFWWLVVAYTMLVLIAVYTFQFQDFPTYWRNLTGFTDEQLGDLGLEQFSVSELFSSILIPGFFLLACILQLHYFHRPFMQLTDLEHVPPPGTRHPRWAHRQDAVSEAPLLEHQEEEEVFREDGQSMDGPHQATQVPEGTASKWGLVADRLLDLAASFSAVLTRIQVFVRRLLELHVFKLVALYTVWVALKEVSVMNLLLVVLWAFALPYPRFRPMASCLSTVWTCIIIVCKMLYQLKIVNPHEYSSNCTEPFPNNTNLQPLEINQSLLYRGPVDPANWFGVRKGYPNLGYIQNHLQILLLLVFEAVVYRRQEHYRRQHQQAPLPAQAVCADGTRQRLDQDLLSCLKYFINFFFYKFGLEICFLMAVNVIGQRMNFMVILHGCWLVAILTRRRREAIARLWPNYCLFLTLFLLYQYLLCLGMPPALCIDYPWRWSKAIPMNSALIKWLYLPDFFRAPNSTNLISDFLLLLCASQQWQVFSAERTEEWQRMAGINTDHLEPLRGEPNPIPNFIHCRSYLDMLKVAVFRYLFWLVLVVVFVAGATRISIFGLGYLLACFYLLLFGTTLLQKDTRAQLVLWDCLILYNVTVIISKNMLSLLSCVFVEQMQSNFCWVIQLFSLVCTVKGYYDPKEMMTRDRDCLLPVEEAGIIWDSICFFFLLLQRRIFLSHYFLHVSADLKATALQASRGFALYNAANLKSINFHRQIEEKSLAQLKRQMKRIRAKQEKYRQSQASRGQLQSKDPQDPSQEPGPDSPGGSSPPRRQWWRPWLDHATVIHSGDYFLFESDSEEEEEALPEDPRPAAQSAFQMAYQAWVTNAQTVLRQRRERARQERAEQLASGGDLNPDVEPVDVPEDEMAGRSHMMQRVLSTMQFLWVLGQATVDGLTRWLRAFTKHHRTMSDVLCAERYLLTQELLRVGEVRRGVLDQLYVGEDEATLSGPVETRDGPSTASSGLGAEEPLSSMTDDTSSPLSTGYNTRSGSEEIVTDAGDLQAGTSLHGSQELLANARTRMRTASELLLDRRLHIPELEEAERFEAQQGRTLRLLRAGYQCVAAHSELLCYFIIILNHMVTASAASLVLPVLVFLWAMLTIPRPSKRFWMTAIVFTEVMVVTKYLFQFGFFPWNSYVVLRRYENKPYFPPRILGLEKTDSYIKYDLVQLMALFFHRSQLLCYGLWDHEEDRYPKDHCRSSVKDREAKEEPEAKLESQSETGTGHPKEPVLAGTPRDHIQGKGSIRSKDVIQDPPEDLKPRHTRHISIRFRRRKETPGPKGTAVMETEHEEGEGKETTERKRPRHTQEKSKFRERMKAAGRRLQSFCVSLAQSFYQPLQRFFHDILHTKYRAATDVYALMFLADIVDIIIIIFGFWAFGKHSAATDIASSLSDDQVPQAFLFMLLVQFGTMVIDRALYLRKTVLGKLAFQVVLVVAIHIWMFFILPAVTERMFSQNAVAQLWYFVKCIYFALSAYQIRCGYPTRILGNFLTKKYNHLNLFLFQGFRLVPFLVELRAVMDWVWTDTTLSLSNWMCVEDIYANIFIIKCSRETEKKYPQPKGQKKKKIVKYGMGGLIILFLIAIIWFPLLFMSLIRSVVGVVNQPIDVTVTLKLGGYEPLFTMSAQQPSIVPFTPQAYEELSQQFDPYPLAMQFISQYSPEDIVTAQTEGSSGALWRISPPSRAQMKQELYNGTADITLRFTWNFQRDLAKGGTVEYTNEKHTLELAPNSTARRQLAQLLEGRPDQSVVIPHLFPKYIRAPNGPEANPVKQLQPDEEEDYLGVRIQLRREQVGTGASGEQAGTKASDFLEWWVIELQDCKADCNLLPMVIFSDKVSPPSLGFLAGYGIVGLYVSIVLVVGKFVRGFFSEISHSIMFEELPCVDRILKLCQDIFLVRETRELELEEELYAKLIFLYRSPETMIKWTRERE
T1 sequence (E2JF22 whole entry E824V): as the sequence (E2JF22 whole entry I2286T) above, with E824V, T2286I counted along it

Structure (SMILES): Clc1cccc(Cl)c1CSc1nnc(-c2cnccn2)s1 [Yoda1]
- Effect on mPIEZO1 channel function (E824V mPIEZO1): reduced Y1 potency
- Mean (ΔFratio) (I2286T mPIEZO1; 0.3 µM, time 0 s): 0.00284
- Mean (ΔFratio) (I2286T mPIEZO1; 0.3 µM, time 5 s): -0.01214
- Mean (ΔFratio) (I2286T mPIEZO1; 0.3 µM, time 10 s): -0.00475
- Mean (ΔFratio) (I2286T mPIEZO1; 0.3 µM, time 15 s): 0.0078
- Mean (ΔFratio) (I2286T mPIEZO1; 0.3 µM, time 20 s): 0.0053
- Mean (ΔFratio) (I2286T mPIEZO1; 0.3 µM, time 25 s): 9.46E-04
- Mean (ΔFratio) (I2286T mPIEZO1; 0.3 µM, time 30 s): -0.3226
- Mean (ΔFratio) (I2286T mPIEZO1; 0.3 µM, time 35 s): 0.06275
- Mean (ΔFratio) (I2286T mPIEZO1; 0.3 µM, time 40 s): 0.07886
- Mean (ΔFratio) (I2286T mPIEZO1; 0.3 µM, time 45 s): 0.1026
- Mean (ΔFratio) (I2286T mPIEZO1; 0.3 µM, time 50 s): 0.1196
- Mean (ΔFratio) (I2286T mPIEZO1; 0.3 µM, time 55 s): 0.1055
- Mean (ΔFratio) (I2286T mPIEZO1; 0.3 µM, time 60 s): 0.1268
- Mean (ΔFratio) (I2286T mPIEZO1; 0.3 µM, time 65 s): 0.1277
- Mean (ΔFratio) (I2286T mPIEZO1; 0.3 µM, time 70 s): 0.1132
- Mean (ΔFratio) (I2286T mPIEZO1; 0.3 µM, time 75 s): 0.108
- Mean (ΔFratio) (I2286T mPIEZO1; 0.3 µM, time 80 s): 0.1196
- Mean (ΔFratio) (I2286T mPIEZO1; 0.3 µM, time 85 s): 0.1097
- Mean (ΔFratio) (I2286T mPIEZO1; 0.3 µM, time 90 s): 0.1266
- Mean (ΔFratio) (I2286T mPIEZO1; 0.3 µM, time 95 s): 0.09696
- Mean (ΔFratio) (I2286T mPIEZO1; 0.3 µM, time 100 s): 0.1131
- Mean (ΔFratio) (I2286T mPIEZO1; 0.3 µM, time 105 s): 0.1125
- Mean (ΔFratio) (I2286T mPIEZO1; 0.3 µM, time 110 s): 0.1236
- Mean (ΔFratio) (I2286T mPIEZO1; 0.3 µM, time 115 s): 0.1032
- Mean (ΔFratio) (I2286T mPIEZO1; 0.3 µM, time 120 s): 0.1051
- Mean (ΔFratio) (I2286T mPIEZO1; 0.3 µM, time 125 s): 0.1128
- Mean (ΔFratio) (I2286T mPIEZO1; 0.3 µM, time 130 s): 0.1149
- Mean (ΔFratio) (I2286T mPIEZO1; 3 µM, time 0 s): 0.00514
- Mean (ΔFratio) (I2286T mPIEZO1; 3 µM, time 5 s): -0.00971
- Mean (ΔFratio) (I2286T mPIEZO1; 3 µM, time 10 s): -0.01128
- Mean (ΔFratio) (I2286T mPIEZO1; 3 µM, time 15 s): -0.00374
- Mean (ΔFratio) (I2286T mPIEZO1; 3 µM, time 20 s): 0.00352
- Mean (ΔFratio) (I2286T mPIEZO1; 3 µM, time 25 s): 0.01607
- Mean (ΔFratio) (I2286T mPIEZO1; 3 µM, time 30 s): -0.3514
- Mean (ΔFratio) (I2286T mPIEZO1; 3 µM, time 35 s): -7.87E-04
- Mean (ΔFratio) (I2286T mPIEZO1; 3 µM, time 40 s): 0.4454
- Mean (ΔFratio) (I2286T mPIEZO1; 3 µM, time 45 s): 0.684
- Mean (ΔFratio) (I2286T mPIEZO1; 3 µM, time 50 s): 0.8254
- Mean (ΔFratio) (I2286T mPIEZO1; 3 µM, time 55 s): 0.9146
- Mean (ΔFratio) (I2286T mPIEZO1; 3 µM, time 60 s): 1.017
- Mean (ΔFratio) (I2286T mPIEZO1; 3 µM, time 65 s): 0.992
- Mean (ΔFratio) (I2286T mPIEZO1; 3 µM, time 70 s): 1.046
- Mean (ΔFratio) (I2286T mPIEZO1; 3 µM, time 75 s): 1.071
- Mean (ΔFratio) (I2286T mPIEZO1; 3 µM, time 80 s): 1.067
- Mean (ΔFratio) (I2286T mPIEZO1; 3 µM, time 85 s): 1.06
- Mean (ΔFratio) (I2286T mPIEZO1; 3 µM, time 90 s): 1.0819
- Mean (ΔFratio) (I2286T mPIEZO1; 3 µM, time 95 s): 1.076
- Mean (ΔFratio) (I2286T mPIEZO1; 3 µM, time 100 s): 1.0617
- Mean (ΔFratio) (I2286T mPIEZO1; 3 µM, time 105 s): 1.0398
- Mean (ΔFratio) (I2286T mPIEZO1; 3 µM, time 110 s): 1.005
- Mean (ΔFratio) (I2286T mPIEZO1; 3 µM, time 115 s): 1.038
- Mean (ΔFratio) (I2286T mPIEZO1; 3 µM, time 120 s): 1.008
- Mean (ΔFratio) (I2286T mPIEZO1; 3 µM, time 125 s): 0.9978
- Mean (ΔFratio) (I2286T mPIEZO1; 3 µM, time 130 s): 0.9846
- Mean normalise fluorescence (I2286T mPIEZO1; 1.5 min exposure, 0.03 µM): -0.00469
- Mean normalise fluorescence (I2286T mPIEZO1; 1.5 min exposure, 0.1 µM): -0.00217
- Mean normalise fluorescence (I2286T mPIEZO1; 1.5 min exposure, 0.3 µM): 0.03506
- Mean normalise fluorescence (I2286T mPIEZO1; 1.5 min exposure, 1 µM): 0.1805
- Mean normalise fluorescence (I2286T mPIEZO1; 1.5 min exposure, 3 µM): 0.4613
- Mean normalise fluorescence (I2286T mPIEZO1; 1.5 min exposure, 5 µM): 0.7197
- Mean normalise fluorescence (I2286T mPIEZO1; 1.5 min exposure, 10 µM): 1
- Mean normalise fluorescence (I2286T mPIEZO1; 20 min exposure, normalized to 3 μM, 0.03 µM): 0.09646
- Mean normalise fluorescence (I2286T mPIEZO1; 20 min exposure, normalized to 3 μM, 0.1 µM): 0.04298
- Mean normalise fluorescence (I2286T mPIEZO1; 20 min exposure, normalized to 3 μM, 0.3 µM): 0.2627
- Mean normalise fluorescence (I2286T mPIEZO1; 20 min exposure, normalized to 3 μM, 1 µM): 0.9872
- Mean normalise fluorescence (I2286T mPIEZO1; 20 min exposure, normalized to 3 μM, 3 µM): 1
- Mean normalise fluorescence (I2286T mPIEZO1; 20 min exposure, normalized to 3 μM, 10 µM): 0.9221
- EC50 (I2286T mPIEZO1; long (20 min) exposure, normalized to 3 μM Yoda1): 410 nM
- Effect on mPIEZO1 channel function (I2286T mPIEZO1; versus WT): loss of MA: LOF; reduced Y1 potency
